These results are taken from PMC3818835, “What Goes around Comes around-A Comparative Study of the Influence of Chemical Modifications on the Antimicrobial Properties of Small Cyclic Peptides” (Pharmaceuticals, 2013).

≈ marks a conversion by molar mass, not a printed value. Peptide text beside a SMILES is read from it.

For data set [1], the system named is B. subtilis DSM 347. Format: cell-based. As to conditions: DSM 347, 18 h. How it is done:
(§1) The minimal inhibitory concentration (MIC) of the cyclic hexapeptides was tested against Gram-negative E. coli DH5α and Gram-positive B. subtilis DSM 347 using a microdilution technique in 96 well microtiter plates as described previously. Briefly, cells from an overnight culture were inoculated 1:100 in LB medium, grown to mid log phase (OD600 0.4 ± 0.1) and adjusted to 5 × 10^5 cells/well. Final peptide concentrations ranged from 0.05 µM to 100 µM (2-fold dilutions) and were tested in triplicates in at least three independent experiments. The MIC was determined after 18 h of incubation at 37 °C, 180 rpm being the lowest peptide concentration at which no visible bacterial growth can be detected photometrically (A600, Safire Microplate Reader, Tecan, Männedorf, Germany).

Another data set has as its system E. coli DH5α. Format: cell-based. As to conditions: 18 h. How it is done: as §1
Data set [2] in a line: Hydrophobicity: retention time tR by reversed phase HPLC. Format: physicochemical. As to conditions: chromatographic, RP-HPLC ProntoSil 300-5-C18-H (250 × 4.6 mm, 5 µm); peptide 1 mg/mL in phase A (0.1% TFA in water); B 0.1% TFA in 80% acetonitrile; linear gradient 5%–95% B over 40 min at 22 °C; used as a measure of hydrophobicity. As for the experimental part: The retention time tR of the cyclic hexapeptides was determined by HPLC on a Jasco LC-2000Plus using a ProntoSil 300-5-C18-H column (250 × 4.6 mm, 5 µm) (Bischoff Chromatography). Peptide concentration was 1 mg/mL in mobile phase A (0.1% TFA in deionized water), mobile phase B consisted of 0.1% TFA in 80% acetonitrile in deionized water. For chromatographic analyses a linear gradient of 5%–95% phase B over 40 min at 22 °C was applied.
To investigate the influence of fluorescent label modification and amino acid substitution on the hydrophobicity/amphipathicity of the cyclic hexapeptide derivatives, we determined the retention time tR by reversed phase HPLC (Figure 2). The method monitors the retention of compounds by the hydrophobic HPLC stationary phase. Differences in tR reflect differences in the effective hydrophobicity of the molecule which is related to the intrinsic hydrophobicity of the individual residues and their ability to form hydrophobic domains for interaction with the HPLC matrix. At the same time, hydrophilic residues will locate at the opposite side of the molecule. Reduction in the size or positioning of cationic residues next to the hydrophobic molecular surface area would reduce amphipathicity. tR-measurements have successfully been applied to characterize amphipathic helices, β-structured peptides and different sets of our small cyclic R-, W-rich peptides.

Another data set has as its system eukaryotic cells. The arrangement: method as in PMID 15248771. The settings on record: cited from earlier work.
The test system of another data set is human erythrocytes. Format: cell-based. As to conditions: pH 7.4. How it is done:
The lytic effect of selected peptides upon human erythrocytes was determined as described before. Briefly, cells were washed thoroughly in Tris buffer (10 mM Tris, 150 mM NaCl, pH 7.4). Suspensions with 2.5 × 10^8 cells/mL were incubated with peptides at a final concentration of 100 µM for 30 min at 37 °C. After centrifugation, 0.6% NH4OH was added to an aliquot of the supernatant and hemoglobin absorption (A) was measured at 540 nm (Jasco V-550). Whole cell suspensions exposed to NH4OH were used as positive control (A100%) and preparations without peptide served as negative control (A0%), respectively. Data were collected in three independent experiments.

Data set [3] has as its system B. subtilis DSM 347. As to conditions: 5 µM, PI influx; cited from earlier work. As for the experimental part: Figure 4 Bacterial membrane permeabilisation determined with flow cytometry using propidium iodide (PI). PI influx after incubation with cWFW, fluorescent-labeled and K-substituted cyclic hexapeptides was tested into B. subtilis DSM 347 (A,C) and E. coli DH5α (B,D) at respective MICs. […] Preparations without peptide were used as negative co ...

For `N=C(N)NCCC[C@@H]1NC(=O)[C@H](CCCNC(=N)N)NC(=O)[C@H](Cc2c[nH]c3ccccc23)NC(=O)[C@H](Cc2ccccc2)NC(=O)[C@H](Cc2c[nH]c3ccccc23)NC(=O)[C@H](CCCNC(=N)N)NC1=O` [cWFW] (cyclo(FWRRRW); ring closure inferred), the “MIC B. subtilis DSM 347” value in the data set with B. subtilis DSM 347 [1] is 3 µM (≈ 2.96 µg/mL). In the data set on E. coli DH5α, the “MIC E. coli DH5α” value turned out to be 3 µM (≈ 2.96 µg/mL). Moreover, in data set [2], the “Retention Time tR” value stood at 17.67 min. Also, the “Toxicity towards eukaryotic cells” value in the data set with eukaryotic cells is reported as “no toxicity towards eukaryotic cells could be detected”. Further, in the data set on human erythrocytes, the “Hemolysis at 100 µM” value came out at 4%.
As for “KLALKLALKALKAALKLA-NH2 [KLA-1, helical model peptide …-NH2, positive control in Gram-positive cells]”, in the data set on B. subtilis DSM 347 [3], the “Membrane permeabilising potential, Gram-positive cells (positive control)” value is reported as “high membrane permeabilising potential”.
